Holding throughout (assay): biochemical
Common to all, as to design: Eurofins KinaseProfiler full panel at Km ATP, residual kinase activity (%) relative to DMSO

Assay [1] has as its target BTK(R28H)(h) (Homo sapiens, UniProt Q06187, R28H). The method in brief: (§1)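 Compounds screened at 10 µM in radiometric kinase activity assays at Km ATP, reported as remaining kinase activity (%). A KINOMEscan competition-binding screen at 10 µM measured DNA-tagged kinase retained on immobilized active-site ligand by qPCR.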
For assay [2], the target named is T1, CHK2(h) (Homo sapiens, UniProt O96017).
T1 construct: gene CHEK2
In short, it runs like this:
as §1

For assay [3], the target named is T2, CK1α(h) (Homo sapiens, UniProt P48729).
T2 construct: gene CSNK1A1
The method in brief:
as §1

Assay [4] deals with FGFR1(h) (Homo sapiens, UniProt P11362). In short, it runs like this: as §1
Assay [5] deals with T3, GCK(h) (Homo sapiens, UniProt Q12851).
T3 construct: gene MAP4K2
T3 sequence (Q12851 1-820): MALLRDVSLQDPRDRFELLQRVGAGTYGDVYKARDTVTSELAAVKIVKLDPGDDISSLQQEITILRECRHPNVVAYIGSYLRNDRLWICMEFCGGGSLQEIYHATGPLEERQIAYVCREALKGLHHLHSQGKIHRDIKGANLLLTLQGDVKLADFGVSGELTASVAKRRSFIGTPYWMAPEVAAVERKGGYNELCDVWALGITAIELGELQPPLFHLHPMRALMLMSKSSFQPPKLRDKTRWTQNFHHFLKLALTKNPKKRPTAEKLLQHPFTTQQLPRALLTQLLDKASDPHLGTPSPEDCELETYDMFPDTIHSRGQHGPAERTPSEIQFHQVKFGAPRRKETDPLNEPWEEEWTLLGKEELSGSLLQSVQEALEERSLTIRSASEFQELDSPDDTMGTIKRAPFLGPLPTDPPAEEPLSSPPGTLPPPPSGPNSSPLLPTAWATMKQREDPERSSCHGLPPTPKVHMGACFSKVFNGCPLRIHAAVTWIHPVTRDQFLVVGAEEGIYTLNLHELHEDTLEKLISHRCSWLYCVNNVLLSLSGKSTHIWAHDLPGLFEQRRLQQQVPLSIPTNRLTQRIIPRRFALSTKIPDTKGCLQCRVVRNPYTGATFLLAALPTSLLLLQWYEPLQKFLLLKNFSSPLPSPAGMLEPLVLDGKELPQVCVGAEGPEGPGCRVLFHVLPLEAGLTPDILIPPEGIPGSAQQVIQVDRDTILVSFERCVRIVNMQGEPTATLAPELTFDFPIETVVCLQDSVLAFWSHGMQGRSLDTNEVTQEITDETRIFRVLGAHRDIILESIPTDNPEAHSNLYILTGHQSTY
In short, it runs like this:
as §1

Assay [6] concerns the target T4, HIPK4(h) (Homo sapiens, UniProt Q8NE63).
T4 sequence (Q8NE63 1-616): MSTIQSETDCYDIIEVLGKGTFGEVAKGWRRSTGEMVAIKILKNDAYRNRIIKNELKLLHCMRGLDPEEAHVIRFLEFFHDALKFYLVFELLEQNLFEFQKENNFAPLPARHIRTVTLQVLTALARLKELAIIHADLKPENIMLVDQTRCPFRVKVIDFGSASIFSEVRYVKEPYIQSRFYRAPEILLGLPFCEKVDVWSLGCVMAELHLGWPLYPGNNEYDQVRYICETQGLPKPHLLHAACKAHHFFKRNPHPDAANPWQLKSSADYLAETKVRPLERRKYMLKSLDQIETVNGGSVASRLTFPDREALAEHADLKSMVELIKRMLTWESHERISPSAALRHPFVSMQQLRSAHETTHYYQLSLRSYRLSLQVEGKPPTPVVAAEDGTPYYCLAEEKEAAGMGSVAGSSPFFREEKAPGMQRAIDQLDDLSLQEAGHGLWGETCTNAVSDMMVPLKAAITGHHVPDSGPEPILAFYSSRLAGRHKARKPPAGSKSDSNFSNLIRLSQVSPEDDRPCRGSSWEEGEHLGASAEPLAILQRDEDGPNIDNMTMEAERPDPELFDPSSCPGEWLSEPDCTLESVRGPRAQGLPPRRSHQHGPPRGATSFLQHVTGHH
The method in brief:
as §1

For assay [7], the target named is T5, MOK(h) (Homo sapiens, UniProt Q9UQ07).
T5 sequence (Q9UQ07 1-419): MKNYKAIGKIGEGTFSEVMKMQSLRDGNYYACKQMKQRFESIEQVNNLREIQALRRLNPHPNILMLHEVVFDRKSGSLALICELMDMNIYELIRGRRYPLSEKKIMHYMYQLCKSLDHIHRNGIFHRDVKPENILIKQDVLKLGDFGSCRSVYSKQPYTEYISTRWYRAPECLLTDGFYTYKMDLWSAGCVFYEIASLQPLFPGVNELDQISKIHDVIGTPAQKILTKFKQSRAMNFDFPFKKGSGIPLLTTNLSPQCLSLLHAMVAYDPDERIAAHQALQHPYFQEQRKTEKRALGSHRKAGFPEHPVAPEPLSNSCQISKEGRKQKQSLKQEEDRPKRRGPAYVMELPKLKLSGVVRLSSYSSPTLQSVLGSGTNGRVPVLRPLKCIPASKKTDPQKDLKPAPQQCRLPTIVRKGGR
In short, it runs like this: as §1

[8] abbreviates: read-out: Residual activity (%) Spautin-1 5aa.
The mark [9] stands for this setting: read-out: Residual activity (%) 5as.
Where [10] appears, read: read-out: Residual activity (%) 5at.
The mark [11] stands for this setting: read-out: Residual activity (%) 5ay.

The structures appear in SMILES notation. Read-outs that look alike come from different tables or passages of the source.

T1 sequence (O96017 whole entry): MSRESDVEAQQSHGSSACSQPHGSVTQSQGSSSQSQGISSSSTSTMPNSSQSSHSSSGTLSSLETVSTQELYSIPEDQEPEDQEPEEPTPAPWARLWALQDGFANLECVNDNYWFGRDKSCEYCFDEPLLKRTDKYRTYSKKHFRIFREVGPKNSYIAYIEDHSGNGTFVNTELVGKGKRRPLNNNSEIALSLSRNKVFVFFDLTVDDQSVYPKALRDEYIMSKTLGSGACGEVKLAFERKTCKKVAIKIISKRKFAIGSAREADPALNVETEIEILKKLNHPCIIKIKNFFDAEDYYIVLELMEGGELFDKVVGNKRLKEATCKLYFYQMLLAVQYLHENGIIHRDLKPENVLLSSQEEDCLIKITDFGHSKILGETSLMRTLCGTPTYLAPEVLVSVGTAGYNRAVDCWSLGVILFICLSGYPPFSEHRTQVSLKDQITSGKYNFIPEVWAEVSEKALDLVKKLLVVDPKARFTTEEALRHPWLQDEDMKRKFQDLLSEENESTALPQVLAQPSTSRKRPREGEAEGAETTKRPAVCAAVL
Sequence of BTK(R28H)(h) (Q06187 whole entry R28H): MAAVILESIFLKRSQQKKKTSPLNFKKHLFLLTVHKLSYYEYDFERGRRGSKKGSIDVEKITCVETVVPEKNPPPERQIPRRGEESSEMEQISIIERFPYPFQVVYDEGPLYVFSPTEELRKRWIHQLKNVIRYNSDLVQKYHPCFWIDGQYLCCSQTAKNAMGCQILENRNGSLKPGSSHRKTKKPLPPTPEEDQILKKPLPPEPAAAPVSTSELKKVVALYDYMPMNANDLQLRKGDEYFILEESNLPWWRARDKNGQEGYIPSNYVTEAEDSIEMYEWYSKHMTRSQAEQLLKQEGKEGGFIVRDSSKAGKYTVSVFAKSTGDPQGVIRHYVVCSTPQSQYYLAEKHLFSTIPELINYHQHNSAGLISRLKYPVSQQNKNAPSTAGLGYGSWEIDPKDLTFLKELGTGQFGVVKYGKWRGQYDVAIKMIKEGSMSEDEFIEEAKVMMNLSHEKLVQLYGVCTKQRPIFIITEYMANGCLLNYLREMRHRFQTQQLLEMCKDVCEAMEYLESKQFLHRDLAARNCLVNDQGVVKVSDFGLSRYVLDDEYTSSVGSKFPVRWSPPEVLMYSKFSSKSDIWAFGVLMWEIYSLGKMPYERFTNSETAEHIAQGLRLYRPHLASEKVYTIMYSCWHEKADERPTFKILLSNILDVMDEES
T2 sequence (P48729 whole entry): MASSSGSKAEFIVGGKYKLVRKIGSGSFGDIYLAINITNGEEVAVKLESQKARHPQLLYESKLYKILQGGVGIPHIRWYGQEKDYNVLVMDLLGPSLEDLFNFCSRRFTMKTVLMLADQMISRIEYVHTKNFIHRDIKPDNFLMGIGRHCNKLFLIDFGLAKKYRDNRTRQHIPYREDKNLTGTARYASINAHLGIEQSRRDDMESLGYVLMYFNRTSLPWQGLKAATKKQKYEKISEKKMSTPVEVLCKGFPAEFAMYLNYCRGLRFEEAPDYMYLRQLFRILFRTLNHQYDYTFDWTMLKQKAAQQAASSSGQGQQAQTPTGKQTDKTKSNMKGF
Sequence of FGFR1(h) (P11362 whole entry): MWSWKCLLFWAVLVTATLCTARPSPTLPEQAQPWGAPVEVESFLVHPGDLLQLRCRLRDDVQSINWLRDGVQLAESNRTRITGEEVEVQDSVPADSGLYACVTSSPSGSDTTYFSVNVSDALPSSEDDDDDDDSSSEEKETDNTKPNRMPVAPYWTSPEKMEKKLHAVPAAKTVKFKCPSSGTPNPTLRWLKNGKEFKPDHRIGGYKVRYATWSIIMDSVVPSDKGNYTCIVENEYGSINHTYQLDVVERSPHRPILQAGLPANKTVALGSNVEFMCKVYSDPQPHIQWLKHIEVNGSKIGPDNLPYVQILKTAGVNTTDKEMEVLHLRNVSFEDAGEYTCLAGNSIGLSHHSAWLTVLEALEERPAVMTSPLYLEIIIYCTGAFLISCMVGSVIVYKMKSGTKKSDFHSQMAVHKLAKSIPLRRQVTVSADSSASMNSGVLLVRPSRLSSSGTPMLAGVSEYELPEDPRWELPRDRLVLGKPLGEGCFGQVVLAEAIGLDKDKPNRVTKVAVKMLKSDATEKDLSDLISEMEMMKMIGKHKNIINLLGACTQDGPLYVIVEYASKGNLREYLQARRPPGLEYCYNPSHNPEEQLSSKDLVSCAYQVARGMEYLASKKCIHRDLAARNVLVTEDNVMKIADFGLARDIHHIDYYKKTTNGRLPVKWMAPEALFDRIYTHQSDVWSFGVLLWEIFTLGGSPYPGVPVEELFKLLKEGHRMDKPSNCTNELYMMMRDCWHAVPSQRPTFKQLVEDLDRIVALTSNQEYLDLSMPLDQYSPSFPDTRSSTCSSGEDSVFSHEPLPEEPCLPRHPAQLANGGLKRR

Take `Fc1ccc(CNc2ncnc3ccc(F)cc23)cc1` [5aa, 6-Fluoro-N-(4-fluorobenzyl)-4-Quinazolinamine]: the remaining activity at 10 µM in assay [1] (setting [8]) is 88%; in assay [2] (setting [8]), 67%; in assay [3] (setting [8]) it was 76%; in assay [4] (setting [8]), 91%; in assay [5] (setting [8]), 109%; in assay [6] (setting [8]), 103%. In assay [7] (setting [8]), the remaining activity at 10 µM is 89%.
For the molecule `Fc1ccc(CCNc2ncnc3ccc(F)cc23)cc1` [5as, 6-Fluoro-N-[2-(4-Fluorophenyl)Ethyl]-4-Quinazolinamine], the remaining activity at 10 µM in assay [1] (setting [9]) is 103%; in assay [2] (setting [9]), 73%; in assay [3] (setting [9]) it was 98%; in assay [4] (setting [9]) it was 105%; in assay [5] (setting [9]), 88%; in assay [6] (setting [9]), 92%. In addition, in assay [7] (setting [9]), the remaining activity at 10 µM is 86%.
`Fc1ccc2ncnc(NCCc3ccc(Cl)cc3)c2c1` [5at, N-[2-(4-Chlorophenyl)Ethyl]-6-Fluoro-4-Quinazolinamine]: the remaining activity at 10 µM in assay [1] (setting [10]) was 101%; in assay [2] (setting [10]), 75%; in assay [3] (setting [10]) it was 89%; in assay [4] (setting [10]), 123%; in assay [5] (setting [10]) it was 87%; in assay [6] (setting [10]) it was 93%. Moreover, the remaining activity at 10 µM in assay [7] (setting [10]) is 100%.
For `COc1ccc2ncnc(Nc3cccc(F)c3)c2c1` [5ay, N-(3-Fluorophenyl)-6-Methoxy-4-Quinazolinamine], the remaining activity at 10 µM in assay [1] (setting [11]) amounted to 103%; in assay [2] (setting [11]), 67%; in assay [3] (setting [11]), 100%; in assay [4] (setting [11]) it was 81%; in assay [5] (setting [11]), 60%; in assay [6] (setting [11]), 42%. For the same molecule, the remaining activity at 10 µM in assay [7] (setting [11]) came to 65%.

Source of the values: publication PMC7827406, “Structure–Activity Relationship (SAR) Study of Spautin-1 to Entail the Discovery of Novel NEK4 Inhibitors” (International Journal of Molecular Sciences, 2021).
